# Measurements taken from PMC11173897, “Computational Docking as a Tool in Guiding the Drug Design of Rutaecarpine Derivatives as Potential SARS-CoV-2 Inhibitors” (Molecules, 2024).
# Assays:
# [1] = test system: wild-type SARS-CoV-2 pseudovirus; assay: microbe, parasite or virus in culture; type: cell-based; conditions: for IC50: Severe acute respiratory syndrome-related coronavirus, HEK-293T, n = 5, read-out: IC50, blocking wild-type viral entry
# [2] = test system: omicron SARS-CoV-2 pseudovirus; assay: microbe, parasite or virus in culture; type: cell-based; conditions: Severe acute respiratory syndrome-related coronavirus, HEK-293T; n = 5; read-out: IC50, entry of the omicron pseudovirus
Compound,IC50 [1] [nM],IC50 [2] [nM],maximal inhibition compared with RU [1]
"O=c1c2ccccc2nc2n1CCc1c-2[nH]c2ccccc12 [RU, rutaecarpine]",1340,1010,–
O=c1c2ccc(Nc3ccccc3)cc2nc2n1CCc1c-2[nH]c2ccccc12 [RU-75],460,320,almost double that of RU
O=C1c2ccc(Nc3ccccc3)cc2NC2=NCCc3c2n1c1ccccc31 [RU-184],210,260,almost double that of RU
